Reference: patent publication US4963553A, “4-[(substituted) alkylcarbonyl]-4,5-dihydro- and -4,5,6,7-tetrahydro-7-[(substituted)phenyl]pyrazolo[1,5-a]pyrimidines” (American Cyanamid Co., priority 1988, dated 1990)
Where a name gives a salt, the structure may show the parent alone.

What was measured:
[1] = tested on: mice (tetrabenazine-induced depression); test: Tetrabenazine-induced depression (antidepressant); format: in vivo, mouse; design: key: Active: A compound is considered active if 3 or more of 10 mice are protected against the tetrabenazine-induced effects; conditions: 25 mg/kg, oral, 10 mice
Procedure: The compounds of the invention are useful as antidepressant agents in warm-blooded animals as verified in the following tests. First, the antidepressant properties of these compounds were tested by measuring their ability to counteract depression induced in animals by the administration of tetrabenazine methanesulfonate. Each test compound was administered orally to 10 mice at a dose of 25 mg/kg of body weight. Thirty minutes later, tetrabenazine methane sulfonate was administered intraperitoneally to each mouse at a dose of 39 mg/kg of body weight, which dose is known to depress markedly the exploratory behavior of normal mice. Thirty minutes later the mice were tested for their exploratory behavior as described by E. Greenblatt and A. C. Osterberg, Toxicology and Applied Pharmacology, 7. 566-578 (1965). A compound is considered active if 3 or more of 10 mice are protected against the tetrabenazine-induced effects.

[2] = tested on: Brain-Specific Receptors of Rats (3H-benzodiazepine binding); test: Inhibition of the binding of 3H-benzodiazepine to brain-specific receptors of rats; design: species or system rat (Wistar strain, whole cortex); conditions: rat cortex P2 fraction, 3H-diazepam 1.5 nM or 3H-flunitrazepam 1.0 nM
Description: Another test utilized for the determination of anxiolytic activity is the measurement of the ability of a test compound to inhibit the binding of tritiated benzodiazepines to brain-specific receptors of mammals. A modification of the method described by R. F. Squires, et al., Nature, 266 (21), 732 (Apr., 1977) and H. Mohler, et al., Science, 198, 849 (1977) was employed. […] The test compounds were solubilized in dimethylformamide, acetic acid, ethanol or hydrochloric acid. […] (1) resuspended in twice the original volume in hypotonic 50 mM Tris.HCl (pH 7.4), or (2) resuspended in one-half the original volume in hypotonic 10 mM Tris.HCl (pH 7.4) and frozen (-20° C.) until time. of use. Frozen P2 preparations were thawed and resuspended in four times the original homogenizing volume at time of assay. […] Incubation for 30 minutes proceeded in ice and was terminated by filtration, under vacuum, through glass fiber filters. The filters were washed twice with 5 ml of ice-cold 50 mM Tris.HCl (pH 7.4) and placed in scintillation vials. After drying at 50°-60° C. for 30 minutes, 10 ml of diluent was added and the radioactivity determined in a scintillation counter. Inhibition of binding was calculated by the difference between total binding and binding in the presence of test compound, divided by the total binding, X 100.

[3] = tested on: Spontaneously Hypertensive Rats; test: Hypotensive activity: mean arterial blood pressure in spontaneously hypertensive rats; format: in vivo, rat (Okamoto strain, male); conditions: SHR, gavage, 100 mg/kg or less, two doses 24 h apart, measured at 28 hours; average MABP of rats used 160±1.5 mm; 100 mg/kg
Outline: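 Male 16-week-old Okamoto SHR (baseline MAP 160±1.5 mm Hg) dosed by gavage at ≤100 mg/kg in 2% starch with 25 ml/kg 0.9% NaCl load, redosed at 24 h without saline; mean arterial pressure measured at 28 h after first dose.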

[4] = tested on: mice (anoxic induced amnesia); test: Passive Avoidance Anoxic Induced Amnesia Test; format: in vivo, mouse (Swiss-Webster, middle-aged); conditions: intraperitoneal, vs saline control
Description: A useful in vivo test associated with decreased neural function in mammals is the Passive Avoidance Anoxic Induced Amnesia Test. This test is used to determine the attenuation of anoxic induced amnesia in mice treated with drug, as compared to saline treated control animals with no drug. A shock-motivated, single trial, step-through passive avoidance procedure is used. Groups of 25 Swiss-Webster, middle-aged mice (9 months of age) are placed singly in the front chamber of a 2-chamber box and are allowed to voluntarily cross into the rear chamber. As soon as the mouse enters the rear chamber, a door automatically traps the animal and a mild electric shock (0.4 mA for 4 seconds) is delivered to its feet. Following the foot shock, the mice are initially placed in an anoxic environment (0% oxygen) for 12 seconds, which quickly induces unconsciousness. […] All testing is performed 24 hours later, and in all cases the mice appear fully recovered from the previous anoxic/hypoxic treatment. […] Control animals are injected intraperitoneally only with saline at 0.01 ml/g of body weight. The latent period prior to entering the rear chamber is recorded for both training and testing sessions. The greater the memory of being shocked, the greater the reluctance to enter into the rear chamber and the higher will be the latent period prior to re-entry. […]

[5] = tested on: mice (hypoxic environment); test: Hypoxic survival test; format: in vivo, mouse (Royal Hart); conditions: intraperitoneal, 10% oxygen, 5 minutes
Outline: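 Groups of 20 Royal Hart mice (6 weeks old) dosed i.p. with compound in saline at 1–200 mg/kg, 30 minutes before exposure to 10% oxygen/90% carbon dioxide; survival scored after 5 minutes. Saline and physostigmine (0.125 mg/kg i.p.) groups run in parallel.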

rats = test: Non-conditioned passive avoidance conflict procedure in rats (anxiolytic); format: in vivo, rat (Wistar strain, male); conditions: 25 mg/kg, oral, 60 minutes
Procedure: A test used to assess antianxiety effects is the non-conditioned passive avoidance procedure described by J. R. Vogel, B. Beer and D. E. Clody, "A Simple and Reliable Conflict Procedure for Testing Antianxiety Agents", Psychopharmacologia, 21, 1-7 (1971). A conflict situation is induced in rats by a modification of this method.
Groups of 8 naive, Wistar strain male rats (Royalhart Farms, New Hampton, N.J.), weighing 200-240 g each, were deprived of water for 48 hours. The test compounds were administered in single or graded, oral doses, suspended in 2% starch with 5% polyethylene glycol in distilled water and one drop of polysorbate 80. Control animals received the vehicle alone. At 60 minutes each rat was placed in an individual clear plastic chamber. Tap water was available ad libitum from a nipple located in a black box off the main chamber. A 0.7 milliampere AC shocking current was established between the stainless steel grid floor and the tap. After 20 licks of non-shocked drinking, a 2 second shocking current was administered to the rat. This ratio of 20 licks of non-shocked drinking followed by a 2 second shock was continued for a total of 3 minutes. The number of shocks taken by each rat during the 3 minute interval was recorded and compared to a control group. […]

Row | SMILES | Result (protection against tetrabenazine-induced depression) [1] | % Inhibition (3H-benzodiazepine binding) [2] | MABP/mmHg (mean arterial blood pressure) [3] | % Improvement ([4]; 100 mg/kg) | % Improvement ([4]; 200 mg/kg) | % Survivors ([5]; 100 mg/kg) | responders at 10 mg/kg ([5]; Mus musculus, ip, 5 min, 10 mg/kg, read-out: % Survivors) | Result (No. of shocks per 3 min.) (rats)
1 | N#Cc1cnn2c1N(C(=O)CN1CCN(Cc3ccccc3)CC1)CC=C2c1cccc(C(F)(F)F)c1 [Example 17, 4,5-Dihydro-4-[[4-(phenylmethyl)-1-piperazinyl]acetyl]-7-[3-(trifluoromethyl)phenyl]pyrazolo[1,5-a]pyrimidine-3-carbonitrile] | Active | 17% | 120 mmHg | 65% | 93% | 48% | 40% | 
2 | N#Cc1cnn2c1N(C(=O)CN1CCN(CCC3CCCCC3)CC1)CC=C2c1cccc(C(F)(F)F)c1 [Example 41, 4-[[4-(2-Cyclohexylethyl)-1-piperazinyl]acetyl]-4,5-dihydro-7-[3-(trifluoromethyl)phenyl]pyrazolo[1,5-a]pyrimidine-3-carbonitrile] |  |  |  |  |  |  |  | 18.0 shocks per 3 min.
3 | CN1CCN(CC(=O)N2CC=C(c3cccc(C(F)(F)F)c3)n3ncc(C#N)c32)CC1 [Example 77, 4,5-Dihydro-4-[(4-methyl-1-piperazinyl)acetyl]-7-[3-(trifluoromethyl)phenyl]pyrazolo[1,5-a]-pyrimidine-3-carbonitrile. dihydrochloride] |  |  |  |  |  |  |  | 17.4 shocks per 3 min.
